Source: patent publication US20140120083A1, “TREATMENT OF CANCERS USING PI3 KINASE ISOFORM MODULATORS” (INFINITY PHARMACEUTICALS, INC., priority 2012, published 2014)

Experiments:
Format in all cases: biochemical
PI3K γ = target: T1, PI3K γ (Homo sapiens, UniProt P48736); experiment: In vitro IC50, PI3K γ
T1 construct: purchased Sigma
From the text: (§1) An exemplary system is PI 3-Kinase (human) HTRF™ Assay from Upstate.

PI3K δ = PI3K δ (Homo sapiens, UniProt O00329); experiment: In vitro IC50, PI3K δ; design: purchased Upstate
Sequence of PI3K δ (O00329 whole entry): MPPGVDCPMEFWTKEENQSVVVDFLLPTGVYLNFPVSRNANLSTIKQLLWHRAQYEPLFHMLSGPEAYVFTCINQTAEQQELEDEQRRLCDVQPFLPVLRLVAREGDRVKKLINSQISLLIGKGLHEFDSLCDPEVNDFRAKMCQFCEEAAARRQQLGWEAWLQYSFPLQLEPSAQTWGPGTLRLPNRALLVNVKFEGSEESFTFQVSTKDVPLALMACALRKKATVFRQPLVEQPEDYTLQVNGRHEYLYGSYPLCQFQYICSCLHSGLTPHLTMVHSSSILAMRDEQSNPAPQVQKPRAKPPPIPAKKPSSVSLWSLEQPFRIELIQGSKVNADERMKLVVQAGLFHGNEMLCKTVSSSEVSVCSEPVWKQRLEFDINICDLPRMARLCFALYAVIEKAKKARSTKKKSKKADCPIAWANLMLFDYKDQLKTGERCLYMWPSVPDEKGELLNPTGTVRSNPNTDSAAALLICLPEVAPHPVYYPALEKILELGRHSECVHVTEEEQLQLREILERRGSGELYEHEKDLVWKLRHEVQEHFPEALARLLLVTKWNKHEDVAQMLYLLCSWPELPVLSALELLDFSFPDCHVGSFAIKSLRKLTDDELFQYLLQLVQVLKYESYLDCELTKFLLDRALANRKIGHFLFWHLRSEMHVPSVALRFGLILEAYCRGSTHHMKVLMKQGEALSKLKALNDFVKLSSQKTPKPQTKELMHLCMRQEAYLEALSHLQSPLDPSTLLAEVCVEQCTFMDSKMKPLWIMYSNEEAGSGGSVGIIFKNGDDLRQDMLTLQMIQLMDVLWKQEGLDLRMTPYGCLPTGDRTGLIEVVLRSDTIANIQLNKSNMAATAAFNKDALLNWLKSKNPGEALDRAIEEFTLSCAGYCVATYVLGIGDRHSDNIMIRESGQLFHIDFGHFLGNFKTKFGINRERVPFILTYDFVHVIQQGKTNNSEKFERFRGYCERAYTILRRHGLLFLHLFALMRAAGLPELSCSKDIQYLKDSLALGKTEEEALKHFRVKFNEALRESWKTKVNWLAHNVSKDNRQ
Sequence of PI3K δ (P27986 whole entry partner): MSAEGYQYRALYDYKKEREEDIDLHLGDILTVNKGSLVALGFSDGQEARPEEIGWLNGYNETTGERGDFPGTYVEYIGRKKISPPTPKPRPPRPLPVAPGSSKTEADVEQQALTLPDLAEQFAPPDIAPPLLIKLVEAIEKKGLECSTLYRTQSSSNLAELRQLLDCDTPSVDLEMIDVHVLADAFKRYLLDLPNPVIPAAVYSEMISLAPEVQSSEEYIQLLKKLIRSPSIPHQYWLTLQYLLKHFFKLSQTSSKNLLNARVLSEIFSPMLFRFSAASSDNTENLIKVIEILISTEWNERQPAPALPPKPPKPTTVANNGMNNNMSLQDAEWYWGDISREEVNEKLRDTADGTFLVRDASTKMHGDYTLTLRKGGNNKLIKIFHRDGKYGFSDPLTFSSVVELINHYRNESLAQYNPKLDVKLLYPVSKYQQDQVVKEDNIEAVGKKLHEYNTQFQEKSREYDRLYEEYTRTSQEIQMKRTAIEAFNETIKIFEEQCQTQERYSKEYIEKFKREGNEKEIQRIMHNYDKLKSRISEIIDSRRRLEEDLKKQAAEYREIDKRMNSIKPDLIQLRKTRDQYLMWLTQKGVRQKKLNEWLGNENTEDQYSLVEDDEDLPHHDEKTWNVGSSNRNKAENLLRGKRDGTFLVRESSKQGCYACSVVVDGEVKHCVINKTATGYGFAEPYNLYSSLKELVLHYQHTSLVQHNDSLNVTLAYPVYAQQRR
From the text: as §1

PI3K α = target: T2, PI3K α (Homo sapiens, UniProt P42336); experiment: In vitro IC50, PI3K α
T2 construct: purchased Upstate
T2 sequence (P42336 whole entry): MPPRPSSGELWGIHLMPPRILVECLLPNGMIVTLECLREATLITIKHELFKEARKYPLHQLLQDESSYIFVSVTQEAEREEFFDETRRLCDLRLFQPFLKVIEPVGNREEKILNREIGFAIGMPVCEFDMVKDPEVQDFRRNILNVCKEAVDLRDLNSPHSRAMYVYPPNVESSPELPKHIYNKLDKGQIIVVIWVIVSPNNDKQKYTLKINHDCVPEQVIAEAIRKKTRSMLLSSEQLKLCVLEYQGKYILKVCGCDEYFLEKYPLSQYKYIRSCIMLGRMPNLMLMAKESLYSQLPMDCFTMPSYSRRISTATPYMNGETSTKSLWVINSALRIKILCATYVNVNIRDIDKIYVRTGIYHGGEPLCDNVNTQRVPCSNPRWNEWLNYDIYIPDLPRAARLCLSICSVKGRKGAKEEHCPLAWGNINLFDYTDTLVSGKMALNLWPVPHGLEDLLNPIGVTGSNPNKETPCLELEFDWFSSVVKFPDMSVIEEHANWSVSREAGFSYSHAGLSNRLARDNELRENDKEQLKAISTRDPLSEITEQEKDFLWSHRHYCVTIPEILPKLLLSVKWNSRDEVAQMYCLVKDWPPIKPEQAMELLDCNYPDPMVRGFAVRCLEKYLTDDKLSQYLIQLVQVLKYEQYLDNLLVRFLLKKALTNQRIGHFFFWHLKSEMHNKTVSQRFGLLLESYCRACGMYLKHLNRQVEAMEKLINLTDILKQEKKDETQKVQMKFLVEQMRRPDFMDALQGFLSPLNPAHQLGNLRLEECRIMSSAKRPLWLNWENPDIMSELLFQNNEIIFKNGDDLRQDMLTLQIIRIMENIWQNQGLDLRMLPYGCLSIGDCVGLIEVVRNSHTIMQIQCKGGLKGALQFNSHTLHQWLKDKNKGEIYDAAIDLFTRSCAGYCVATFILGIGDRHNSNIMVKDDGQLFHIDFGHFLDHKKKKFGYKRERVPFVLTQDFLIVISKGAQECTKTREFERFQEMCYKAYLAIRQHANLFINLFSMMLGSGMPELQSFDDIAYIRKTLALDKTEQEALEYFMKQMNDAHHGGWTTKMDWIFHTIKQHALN
T2 sequence (P27986 whole entry partner): as the sequence (P27986 whole entry partner) above
From the text: as §1

T1 sequence (P48736 whole entry): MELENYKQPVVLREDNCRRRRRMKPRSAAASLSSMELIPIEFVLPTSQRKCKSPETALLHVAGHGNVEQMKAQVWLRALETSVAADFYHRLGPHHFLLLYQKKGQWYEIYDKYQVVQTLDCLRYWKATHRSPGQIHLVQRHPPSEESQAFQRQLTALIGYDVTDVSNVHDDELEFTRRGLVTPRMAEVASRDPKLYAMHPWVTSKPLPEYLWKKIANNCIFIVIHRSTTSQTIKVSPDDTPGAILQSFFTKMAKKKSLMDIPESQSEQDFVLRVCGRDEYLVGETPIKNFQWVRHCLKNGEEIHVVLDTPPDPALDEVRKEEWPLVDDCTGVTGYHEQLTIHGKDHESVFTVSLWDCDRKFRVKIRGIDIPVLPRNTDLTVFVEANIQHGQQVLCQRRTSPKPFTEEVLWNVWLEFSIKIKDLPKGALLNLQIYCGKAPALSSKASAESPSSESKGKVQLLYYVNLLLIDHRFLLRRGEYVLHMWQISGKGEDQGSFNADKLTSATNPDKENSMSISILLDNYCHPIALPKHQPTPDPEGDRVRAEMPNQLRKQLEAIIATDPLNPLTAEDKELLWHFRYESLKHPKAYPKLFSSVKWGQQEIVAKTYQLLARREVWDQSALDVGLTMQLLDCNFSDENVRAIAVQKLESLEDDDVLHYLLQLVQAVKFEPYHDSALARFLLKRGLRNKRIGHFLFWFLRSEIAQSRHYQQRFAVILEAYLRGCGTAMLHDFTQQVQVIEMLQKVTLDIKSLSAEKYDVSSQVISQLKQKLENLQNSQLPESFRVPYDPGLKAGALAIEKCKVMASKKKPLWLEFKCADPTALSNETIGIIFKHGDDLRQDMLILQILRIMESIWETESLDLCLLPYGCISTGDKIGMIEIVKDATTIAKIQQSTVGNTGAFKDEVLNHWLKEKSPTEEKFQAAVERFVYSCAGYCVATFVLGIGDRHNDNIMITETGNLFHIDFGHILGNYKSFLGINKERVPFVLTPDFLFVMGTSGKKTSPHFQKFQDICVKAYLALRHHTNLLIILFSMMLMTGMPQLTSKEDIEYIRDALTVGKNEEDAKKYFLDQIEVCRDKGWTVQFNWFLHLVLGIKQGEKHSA

Compound	IC50 (PI3K γ) [nM]	IC50 (PI3K δ) [nM]	IC50 (PI3K α) [µM]
Cc1cccc2cc(Cn3cnc4c(N)ncnc43)n(-c3ccccc3F)c(=O)c12 [Compound 1]	> 10000	< 10000	–
Cc1cccc2cc(Cn3nc(I)c4c(N)ncnc43)n(-c3ccccc3F)c(=O)c12 [Compound 2]	< 1000	< 100	–
Cc1cccc2cc(Cn3nc(C#CC4CC4)c4c(N)ncnc43)n(-c3ccccc3F)c(=O)c12 [Compound 4]	> 10000	< 1000	–
Cc1cccnc1-n1c(Cn2nc(I)c3c(N)ncnc32)cc2cccc(C)c2c1=O [Compound 15]	< 1000	< 1000	> 10
Cc1cccnc1-n1c(Cn2nc(-c3cc(O)cc(F)c3)c3c(N)ncnc32)cc2cccc(C)c2c1=O [Compound 16]	< 100	< 100	> 10
Cc1cccnc1-n1c(Cn2nc(Br)c3c(N)ncnc32)cc2cccc(C)c2c1=O [Compound 17]	< 10000	< 1000	> 10
Cc1cccnc1-n1c(Cn2nc(Cl)c3c(N)ncnc32)cc2cccc(C)c2c1=O [Compound 18]	> 10000	< 1000	> 10
Cc1ccccc1-n1c(Cn2nc(Br)c3c(N)ncnc32)cc2cccc(C)c2c1=O [Compound 19]	< 100	< 100	> 10
Cc1ccccc1-n1c(Cn2nc(Cl)c3c(N)ncnc32)cc2cccc(C)c2c1=O [Compound 20]	< 1000	< 100	> 10
Cc1ccccc1-n1c(Cn2nc(-c3ccc(O)c(F)c3)c3c(N)ncnc32)cc2cccc(C)c2c1=O [Compound 30]	< 100	< 100	> 10
Cc1ccccc1-n1c(Cn2nc(I)c3c(N)ncnc32)cc2ccccc2c1=O [Compound 31]	< 100	< 1000	> 10
Cc1ccccc1-n1c(Cn2nc(C#C[C@@H](C)O)c3c(N)ncnc32)cc2ccccc2c1=O [Compound 32]	–	< 1000	> 10
Cc1ccccc1-n1c(Cn2nc(-c3cc(O)cc(F)c3)c3c(N)ncnc32)cc2ccccc2c1=O [Compound 33]	< 100	< 100	> 10
COc1ccc(-c2nn(Cc3cc4cccc(C)c4c(=O)n3-c3ccccc3C)c3ncnc(N)c23)cc1 [Compound 45]	< 100	< 1000	> 10
COc1ccc(-c2nn(Cc3cc4cccc(C)c4c(=O)n3-c3ccccc3F)c3ncnc(N)c23)cc1OC [Compound 47]	< 1000	< 1000	> 10
Cc1ccccc1-n1c(Cn2nc(-c3cnc4[nH]ccc4c3)c3c(N)ncnc32)cc2cccc(C)c2c1=O [Compound 48]	< 100	< 100	> 10
Cc1ccccc1-n1c(Cn2nc(-c3ccc(Cl)cc3)c3c(N)ncnc32)cc2cccc(C)c2c1=O [Compound 49]	< 1000	< 1000	> 10
Cc1ccccc1-n1c(Cn2nc(-c3ccc4cc[nH]c4c3)c3c(N)ncnc32)cc2cccc(C)c2c1=O [Compound 50]	< 100	< 100	> 10
Cc1ccccc1-n1c(Cn2nc(-c3cccc(O)c3)c3c(N)ncnc32)cc2ccccc2c1=O [Compound 51]	< 1000	< 100	> 10
Cc1cccnc1-n1c(Cn2nc(I)c3c(N)ncnc32)cc2ccccc2c1=O [Compound 92]	< 10000	< 10000	–
CC(C)n1c(Cn2nc(I)c3c(N)ncnc32)cc2cccc(F)c2c1=O [Compound 117]	–	< 10000	–

Compound	IC50 (PI3K γ) [nM]	IC50 (PI3K δ) [nM]	IC50 (PI3K α) [µM]
Cc1ccccc1-n1c(Cn2nc(-c3ccc(CN)cc3)c3c(N)ncnc32)cc2cccc(C)c2c1=O [Compound 118]	–	< 10000	–
CNC(=O)c1cccc(-c2nn(Cc3cc4cccc(C)c4c(=O)n3-c3ccccc3C)c3ncnc(N)c23)c1 [Compound 120]	–	< 10000	–
Cc1cccc2cc(Cn3nc(-c4cccc(O)c4)c4c(N)ncnc43)n(C)c(=O)c12 [Compound 124]	–	< 100	–
Cc1cccc2cc(Cn3nc(-c4cc(O)cc(F)c4)c4c(N)ncnc43)n(C)c(=O)c12 [Compound 125]	–	< 100	–
CCn1c(Cn2nc(-c3cccc(O)c3)c3c(N)ncnc32)cc2cccc(C)c2c1=O [Compound 126]	–	< 100	–
Cc1cccc2cc(Cn3nc(-c4cc(O)cc(F)c4)c4c(N)ncnc43)n(C3CCOCC3)c(=O)c12 [Compound 128]	–	< 100	–
CC(C)n1c(Cn2nc(I)c3c(N)ncnc32)cc2ccccc2c1=O [Compound 129]	–	< 10000	–
Nc1ncnc2c1c(I)nn2Cc1cc2cccc(F)c2c(=O)n1-c1ccccc1F [Compound 132]	–	< 10000	–
CC(C)n1c(Cn2nc(-c3cc(O)cc(F)c3)c3c(N)ncnc32)cc2cccc(F)c2c1=O [Compound 134]	–	< 100	–
CC(C)n1c(Cn2nc(-c3cccc(O)c3)c3c(N)ncnc32)cc2ccccc2c1=O [Compound 135]	–	< 100	–
CC(C)n1c(Cn2nc(-c3cc(O)cc(F)c3)c3c(N)ncnc32)cc2ccccc2c1=O [Compound 136]	–	< 100	–
CC(C)n1c(Cn2nc(-c3cccc(O)c3)c3c(N)ncnc32)cc2cccc(Cl)c2c1=O [Compound 137]	–	< 100	–
CC(C)n1c(Cn2nc(-c3cc(O)cc(F)c3)c3c(N)ncnc32)cc2cccc(Cl)c2c1=O [Compound 138]	–	< 100	–
Nc1ncnc2c1c(I)nn2Cc1cc2cccc(Cl)c2c(=O)n1C1CC1 [Compound 139]	–	< 100	–
Nc1ncnc2c1c(-c1cccc(O)c1)nn2Cc1cc2cccc(Cl)c2c(=O)n1C1CC1 [Compound 141]	–	< 100	–
Nc1ncnc2c1c(-c1cccc(O)c1)nn2Cc1cc2cccc(F)c2c(=O)n1-c1ccccc1F [Compound 143]	–	< 1000	–
Nc1ncnc2c1c(-c1cc(O)cc(F)c1)nn2Cc1cc2cccc(F)c2c(=O)n1-c1ccccc1F [Compound 144]	–	< 100	–
CNC(=O)Nc1nc2ccc(-c3nn(Cc4cc5cccc(C)c5c(=O)n4-c4ccccc4C)c4ncnc(N)c34)cc2s1 [Compound 148]	< 100	< 100	< 0.1
Cc1cccc2cc([C@@H](C)Nc3ncnc4[nH]cnc34)n(-c3ccccc3)c(=O)c12 [Compound 195]	< 10000	< 10000	–
Cc1cccc2cc([C@H](C)Nc3ncnc4[nH]cnc34)n(-c3ccccc3)c(=O)c12 [Compound 196]	< 100	< 100	–
Cc1cccc2cc([C@@H](C)Nc3ncnc4[nH]cnc34)n(C3CC3)c(=O)c12 [Compound 199]	> 10000	> 10000	–

Compound	IC50 (PI3K γ) [nM]	IC50 (PI3K δ) [nM]	IC50 (PI3K α) [µM]
Cc1cccc2cc(C(C)Nc3ncnc4[nH]cnc34)n(-c3ccccc3F)c(=O)c12 (stereo not shown) [Compound 203]	–	–	< 10
CC(Nc1ncnc2[nH]cnc12)c1cc2ccccc2c(=O)n1C1CCN(C)CC1 (stereo not shown) [Compound 225]	–	< 1000	–
Cc1cccc2cc(Cn3nc(-c4cn[nH]c4)c4c(N)ncnc43)n(C3CCN(C)CC3)c(=O)c12 [Compound 226]	–	< 1000	–
Cc1cccc2cc(C(C)Nc3ncnc4[nH]cnc34)n(-c3cccc(F)c3)c(=O)c12 (stereo not shown) [Compound 229]	< 1000	< 100	–
Cc1cccc2cc([C@H](C)Nc3ncnc4[nH]cnc34)n(C(C)C)c(=O)c12 [Compound 230]	< 100	< 100	–
Cc1cccc2cc(C(C)Nc3ncnc4[nH]cnc34)n(C3CCCC3)c(=O)c12 (stereo not shown) [Compound 231]	< 100	< 100	–
Cc1cccc2cc(C(C)Nc3ncnc4[nH]cnc34)n(CCN3CCOCC3)c(=O)c12 (stereo not shown) [Compound 232]	< 10000	< 100	–
Cc1cccc2cc(C(C)Nc3ncnc4[nH]cnc34)n(CCN3CCCC3)c(=O)c12 (stereo not shown) [Compound 233]	> 10000	< 100	–
Cc1cccc2cc(C(C)Nc3ncnc4[nH]cnc34)n(C3CCOCC3)c(=O)c12 (stereo not shown) [Compound 234]	< 1000	< 100	–
Cc1cccc2cc(Cn3nc(-c4ccc5nc(N)oc5c4)c4c(N)ncnc43)n(-c3ccccc3)c(=O)c12 [Compound 236]	< 1000	< 1000	–
Cc1cccc2cc(Cn3nc(-c4ccc5nc(N)cn5c4)c4c(N)ncnc43)n(-c3ccccc3)c(=O)c12 [Compound 239]	< 10000	< 1000	> 10
Cc1cccc2cc([C@H](C)NC(=O)c3cnn4ccccc34)n(-c3ccccc3)c(=O)c12 [Compound 241]	< 10000	> 10000	> 10
Cc1nc2c(N[C@@H](C)c3cc4cccc(C)c4c(=O)n3-c3ccccc3)ncnc2[nH]1 [Compound 242]	< 10000	< 10000	> 10
Cc1cccc2cc([C@H](C)Nc3nc(F)nc4[nH]cnc34)n(-c3ccccc3)c(=O)c12 [Compound 245]	< 100	< 100	< 10
Cc1ccccc1-n1c(Cn2nc(C(=O)O)c3c(N)ncnc32)cc2cccc(C)c2c1=O [Compound 297]	–	< 1000	–
C=Cc1nn(Cc2cc3cccc(C)c3c(=O)n2-c2ccccc2)c2ncnc(N)c12 [Compound 301]	< 1000	< 100	–
Cc1cccc2cc(Cn3nc(-c4ccc5nc(N)[nH]c5c4)c4c(N)ncnc43)n(-c3ccccc3)c(=O)c12 [Compound 302]	< 100	< 100	–
CCc1nn(Cc2cc3cccc(C)c3c(=O)n2-c2ccccc2)c2ncnc(N)c12 [Compound 303]	< 10000	< 100	–
CNC(=O)c1nn(Cc2cc3cccc(C)c3c(=O)n2-c2ccccc2C)c2ncnc(N)c12 [Compound 305]	< 10000	< 10000	–
Cc1ccccc1-n1c(Cn2nc(C(F)F)c3c(N)ncnc32)cc2cccc(C)c2c1=O [Compound 306]	< 100	< 100	–
Cc1cccc2cc(Cn3nc(C(N)=O)c4c(N)ncnc43)n(-c3ccccc3)c(=O)c12 [Compound 307]	< 10000	< 1000	–
